Experimental data reported in patent US20060264442A1, “Methods for the treatment of ocular and neurodegenerative conditions in a mammal” (Allergan, Inc., priority 2005, published 2006).

What was measured:
retinal ganglion cells [1] = assay: Partial optic nerve (ON) injury model, retinal ganglion cell count; format: in vivo, Sprague Dawley rats; conditions: for RGC survival / protective effect: count at twelve days
Protocol: (§1) All procedures were conducted following AACUC protocols. Rats were anesthetized by intramuscular administration of Ketamine/Xylazine/Acepromazine/Saline cocktail, 5/2.5/1/1.5, milliliters respectively, at 1 ml/Kg.
Sprague Dawley rats weighing 300-350 g were used in this experiment. They were anesthetized with the above anesthetic cocktail and ON injury was applied. […] The tissues around the optic nerve were kept away from the optic nerve using jaw opening forceps. Calibrated forceps was put around the nerve about 3 to 4 mm from the globe and held for 30 seconds. The forceps were then removed, and the eyes treated with topical antibiotics at the site of incision. Drugs were then administered at selected doses via IP. Control animals received vehicle.
(§2) The effect of ON injury and elevated IOP on ganglion cells was determined by evaluating ganglion cell loss in whole mounted retinas. At the end of twelve days for ON injured and three months for COHT animals the ganglion cells were labeled by retrograde transport of Dextran Tetramethyl Rhodamine (DTMR, Molecular Probes, OR). […] A longitudinal cut (<1 mm) was made at about 3-4 mm distal from the globe. The optic nerve was sectioned and DTMR crystals were applied at the cut end. Twenty four hours after labeling the animals were euthanized and the eyes enucleated and fixed for 2 hours with 4% paraformaldehyde, then the retinas were removed and whole mounted. Cell counts were done using a Nikon microscope under fluorescent light with Rhodamine filter at 400×. Eight to sixteen regions were counted. Ganglion cell loss was calculated as percentage loss compared to unlasered control. Percent protection was calculated by comparing drug treated to vehicle treated eyes. Statistical analysis was done using two-tail student's t-test.

retinal ganglion cells [2] = assay: COHT model, retinal ganglion cell count; format: in vivo, Wistar rats
Protocol: (§3) Wistar rats weighing 400-475 grams were used. The rats were anesthetized and ocular hypertension was induced by laser photocoagulation of the outflow pathway (mainly episcleral and limbal veins) using a Coherent Argon Laser (Coherent Novus 2000). The number of spots was approximately 150 after two laser treatments with one week interval. IOP was measured using Tono-Pen XL (Mentor O&O). Measurements were done prior to laser treatments to determine baseline and subsequent readings were done weekly.
as §2

[3] = Chronic ocular hypertension (COHT) model, IOP measurement; format: in vivo, Wistar rats; conditions: topical 0.015% twice a day for 90 days, compared to vehicle treated eyes
Protocol: as §1, §3
In this model prazosin was tested after topical application of 0.015% twice a day for 90 days. […] The IOP level reached a steady state after 40 days and it was maintained for the rest of the experimental period.

[4] = COHT model, ERG evaluation of retinal function; format: in vivo, Wistar rats; conditions: topical 0.015% twice a day, at the end of 90 days
Protocol: as §3
Electroretinographic evaluation of the retina was done only to OHT animals. The retinal function was measured 90 days after first laser treatment and prior retinal labeling. LKC system was used with the following parameters: low and high cut filters 0.3 and 500 Hz respectively, number of runs per sample were 10, flash intensity was −30, −20, −10 and −4 dB, Notch filter was off. Data analysis including OP's extraction from flash ERG was done using the system's software and noise was filtered prior calculation. Data represents the average of 5 animals.
At the end of 90 days retinal function was measured using electroretinography (ERG). […] Similarly the oscillatory potential responses were also preserved by prazosin treatment (FIG. 6).

COc1cc2nc(N3CCN(C(=O)C4CCCO4)CC3)nc(N)c2cc1OC (stereo not drawn) [Terazosine, terazosin]
RGC protection (retinal ganglion cells [1]; 0.1 μg/kg IP): Protection was observed | RGC protection (retinal ganglion cells [1]; 1.0 μg/kg IP): maximum effect | RGC survival / protective effect (retinal ganglion cells [1]; 10 μg/kg IP): no effect

Brc1c(NC2=NCCN2)ccc2nccnc12 [Brimonidine, brimonidine]
RGC protection in COHT model (comparison in words) (retinal ganglion cells [2]; dose not given): comparable to what we have observed with Brimonidine | RGC survival / protective effect (retinal ganglion cells [1]; 100 μg/kg IP): protective action of Prazosine is similar to that of Brimonidine

COc1ccccc1N1CCN(CCCNc2c(C)c(=O)n(C)c(=O)n2C)CC1 [5-methyl-Urapedil, 5-methylurapadil]
RGC survival / protective effect (retinal ganglion cells [1]; 10 μg/kg IP): no protective effect

COc1cc2nc(N3CCN(C(=O)c4ccco4)CC3)nc(N)c2cc1OC [Prazosine, prazosin]
Protection of RGC compared to vehicle treated group (retinal ganglion cells [2]; 0.015% topical, three months of IOP elevation): 46% | RGC decrease (retinal ganglion cells [2]; 0.015% topical, three months of IOP elevation, loss compared to unlasered control): 20% | Elevation of IOP [3]: attenuated the elevation of IOP | RGC survival / protective effect (retinal ganglion cells [1]; 10 μg/kg IP): almost two fold increase in RGC survival | ERG A and B wave amplitudes [4]: In vehicle treated animals both A and B wave amplitudes were smaller than those treated with prazosin | Oscillatory potential responses [4]: preserved
